According to PubChem BioAssay (NCI):
“And” between values parts separate entries of the source, which are not always exact repeats. Identical values can stand only once.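 Assay format: 96-well plates, 48-hour exposure. At the GI50, growth is halved. Definition used: TGI = concentration required for complete inhibition of growth.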

Key:
Test in all cases: DTP human tumour cell line panel, 48 h
HCT-116 colon = test system: HCT-116 colon
NCI-H226 lung = test system: NCI-H226 lung
OVCAR-3 ovarian = test system: OVCAR-3 ovarian
OVCAR-5 ovarian = test system: OVCAR-5 ovarian
OVCAR-8 ovarian = test system: OVCAR-8 ovarian
SF-539 CNS = test system: SF-539 CNS
SK-MEL-5 melanoma = test system: SK-MEL-5 melanoma
SN12C renal = test system: SN12C renal
HCC-2998 colon = test system: HCC-2998 colon
SNB-19 CNS = test system: SNB-19 CNS

Compound | TGI (HCT-116 colon) | TGI (NCI-H226 lung) | TGI (OVCAR-3 ovarian) | TGI (OVCAR-5 ovarian) | TGI (OVCAR-8 ovarian) | TGI (SF-539 CNS) | TGI (SK-MEL-5 melanoma) | TGI (SN12C renal) | TGI (HCC-2998 colon) | TGI (SNB-19 CNS) | GI50 (HCC-2998 colon) | GI50 (NCI-H226 lung) | GI50 (OVCAR-3 ovarian) | GI50 (OVCAR-8 ovarian) | GI50 (SF-539 CNS) | GI50 (SN12C renal) | GI50 (SNB-19 CNS) | GI50 (HCT-116 colon) | GI50 (OVCAR-5 ovarian) | GI50 (SK-MEL-5 melanoma)
CN(CCNC(=O)c1cn(C)c2c1ccc1cc(Cl)ccc12)CCNC(=O)c1cn(C)c2c1ccc1cc(Cl)ccc12 | 3.18 µM | 77.8 µM | 6.43 µM | 4.41 µM | 33.8 µM | 9.35 µM | > 26.9 µM | 3.37 µM |  |  |  |  |  |  |  |  |  |  |  | 
O=NN(CCCl)C(=O)Nc1ccc(Cl)c(Cl)c1 | > 100 µM | > 100 µM | > 100 µM | > 100 µM | > 100 µM | > 100 µM | > 100 µM | > 100 µM | > 100 µM | > 100 µM |  |  |  |  |  |  |  |  |  | 
OCCSCc1cc(Cl)cc(Cl)c1O | > 100 µM | > 100 µM | > 100 µM | > 100 µM | > 100 µM |  | > 100 µM | > 100 µM | > 100 µM | > 100 µM |  |  |  |  |  |  |  |  |  | 
Nc1nccc2c1ncn2C1C=C(CO)C(O)C1O (stereo unspecified) | > 85.8 µM | > 1000 µM | > 1000 µM | > 54.1 µM | > 1000 µM | > 1000 µM | > 1000 µM | > 1000 µM | > 1000 µM | > 1000 µM | 3.28 µM | > 1000 µM | 136 µM | 23.9 µM | 711 µM | 0.351 µM | > 1000 µM |  |  | 
CC(C)(C)OC(=O)N1CCCC1C(=O)NCCNc1ccc(NCCNC(=O)C2CCCN2C(=O)OC(C)(C)C)c2c1C(=O)c1ccccc1C2=O (stereo unspecified) | 26 µM | 46.6 µM | 27.1 µM | 30.6 µM | 21 µM | 30.1 µM |  |  | 25.7 µM |  |  |  |  |  |  |  |  |  |  | 
O=[P+](O)c1cccs1 | > 100 µM |  |  |  | > 100 µM | > 100 µM | > 100 µM | > 100 µM |  | > 100 µM |  |  |  |  |  |  |  |  |  | 
O=C1CSc2sc(=S)sc2S1 | > 100 µM | > 100 µM | > 100 µM | > 100 µM | > 100 µM | > 100 µM | > 100 µM | > 100 µM | > 100 µM | > 100 µM |  |  |  |  |  |  |  |  |  | 
CCOC(=O)c1c(SC)nc(-c2ccc(Cl)cc2)sc1=N | 72 µM | 80.4 µM | > 100 µM | > 100 µM | 80 µM | > 100 µM | 38.8 µM | > 100 µM | 63.9 µM | > 100 µM |  |  |  |  |  |  |  |  |  | 
Cc1ccc(NC(=O)CC(=O)n2nc(-c3ccccc3)c(N=Nc3ccccc3C(=O)O)c2-c2ccccc2)cc1 | > 100 µM | > 100 µM | > 100 µM | > 100 µM | > 100 µM | > 100 µM | > 100 µM | > 100 µM | > 100 µM | > 100 µM |  |  |  |  |  |  |  |  |  | 
O=C1NC2(NC(=O)C1=O)Nc1ccccc1S2 | 38.9 µM | > 100 µM | > 100 µM | > 100 µM | > 100 µM | 62.7 µM | > 100 µM | > 61.4 µM | > 100 µM | > 100 µM |  |  |  |  |  |  |  |  |  | 
COc1cccc2c1C(=O)c1c(O)c3c(c(O)c1C2=O)C[C@@](O)(C(C)=O)C[C@@H]3OC1CC(N(C)C)C(O)C(C)O1 (stereo partly specified) |  |  |  |  | 2.8 µM and 3.75 µM |  |  | 2.15 µM and 1.01 µM | 0.27 µM and 0.205 µM |  |  | 0.00108 µM | 0.108 µM and 0.155 µM | 0.00719 µM | 0.0173 µM | 0.0164 µM | 0.0396 µM | 0.00225 µM | 0.0266 µM and 0.0147 µM | 0.0368 µM and < 0.0109 µM
CC1C(O)[C@@]2(OC[C@@]34C(=O)CC5(O)[C@H](CCC6Cc7nc8c(nc7C[C@]65C)CC5CC[C@@H]6C7=C[C@H]9O[C@@]%10(O[C@@](C)(CO)C[C@@H]%10O)C(C)[C@@]9(O)[C@]7(C)[C@@H](O)CC6[C@]5(C)C8)C3=CC[C@H]4C2C)OC1(C)C (stereo partly specified) | 0.542 µM | > 3.55 µM | > 3.55 µM | 0.0795 µM | > 3.55 µM | 0.00487 µM | 0.415 µM | > 3.55 µM | > 3.55 µM | 0.206 µM |  |  |  |  |  |  |  |  |  | 
COC[C@@H]1Cc2cc(OC)c3c(c2[C@H](c2ccc(OC)c(OC)c2)[C@H]1COC)OCO3 | > 100 µM |  | > 100 µM | > 100 µM | > 100 µM | > 100 µM |  | > 100 µM | > 100 µM | > 100 µM |  |  |  |  |  |  |  |  |  | 
Cc1cc(O)c2cc3c(O)c(O)ccc3cc2c1 |  | 5.63 µM | 6.04 µM | 13.5 µM | 11.2 µM | 3.27 µM | 1.07 µM | 17.3 µM | 16.4 µM | > 100 µM |  |  |  |  |  |  |  |  |  | 
